Laboratory results from paper PMC8151276, “An Integrated Approach toward NanoBRET Tracers for Analysis of GPCR Ligand Engagement” (Molecules, 2021).

How the values were obtained:
Assay type in all cases: binding
[1] = biological target: T1, NPY1R (Homo sapiens, UniProt P25929); assay: NanoBRET screen HiBiT-NPY1R in HEK293
T1 construct: purchased Promega (in-house HiBiT-GPCR construct library, NanoBRET)
T1 sequence (P25929 1-384): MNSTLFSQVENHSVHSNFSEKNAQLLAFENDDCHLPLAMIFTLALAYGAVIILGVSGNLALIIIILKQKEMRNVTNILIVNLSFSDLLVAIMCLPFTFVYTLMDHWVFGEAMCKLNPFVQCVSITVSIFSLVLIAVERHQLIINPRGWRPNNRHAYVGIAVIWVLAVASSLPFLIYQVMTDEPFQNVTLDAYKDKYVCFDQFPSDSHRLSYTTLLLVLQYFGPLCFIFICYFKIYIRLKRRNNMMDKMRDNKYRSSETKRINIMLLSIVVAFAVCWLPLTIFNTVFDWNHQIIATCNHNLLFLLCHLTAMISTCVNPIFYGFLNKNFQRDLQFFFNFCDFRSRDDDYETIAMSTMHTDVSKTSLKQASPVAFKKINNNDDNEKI
Experimental: (§1) Each tracer candidate was screened across the entire library of HiBiT-GPCR constructs using NanoBRET as the detection modality. As depicted in Figure 4A, the specificity of interactions was evaluated through decrease in BRET due to competitive displacement of a bound tracer by excess parental compound. Each tracer was analyzed for binding to each HiBiT-GPCR fusion in the absence and in the presence of competing parental compound. Briefly, HEK293 cells were transfected with HiBiT-GPCR constructs diluted into promoterless DNA to reduce expression and maximize translocation to the cell surface. Each tracer candidate was then screened at concentrations of 1 μM and 0.1 μM across cells expressing these fusions. Cells were treated for 1.5 h with tracer either alone or in the presence of 20 μM competing parental compound (i.e., control). BRET was measured upon addition of purified LgBiT and subsequent complementation with HiBiT genetically fused to a GPCR. The specificity of interactions was assessed through a decrease in BRET signal due to competitive displacement of the bound tracer. To further gauge the robustness of these interactions, the fold response over the control (i.e., BRETtracer/BRETcontrol) was calculated. We chose a 1.5-fold response, which translates to ≥7-fold signal over noise as the minimal threshold required to score an interaction as positive. […]. Below we highlight the screening results obtained for our exemplary fluorescent tracers based on Clozapine, Amitriptyline and AZD1283.
(§2) HiBiT-GPCR DNA constructs were diluted in 10 mM Tris pH 8 to a final concentration of 0.01 μg/μL, arrayed in 96-well plates and stored at −20 °C. For transfection, HEK293 cells were suspended in Opti-MEM (without phenol red) supplemented with 2% fetal bovine serum (Seradigm) and 100 units/mL penicillin–streptomycin (Gibco) at a final concentration of 220,000 cells/mL and dispensed into white 96-well plates at 90 μL/well. Subsequent transfections and screens were carried using an Agilent Bravo Automated Liquid Handling Platform. First, the 96-well HiBiT DNA arrays were diluted 25-fold in Opti-MEM (without serum or phenol red) to a final concentration of 0.0004 μg/μL and 20 μL of the diluted DNAs were transferred into new 96-well plates. Next, promoterless carrier DNA (1 μg/μL) was diluted 25-fold (0.04 μg/μL) and then dispensed into the diluted arrays at 20 μL/well. Following brief mixing, Viafect transfection reagent (Promega) diluted 16-fold into Opti-MEM was dispensed into the plates at 40 μL/well. After mixing by pipetting, plates were incubated for 10 min on the pipetting station deck. The DNA-transfection reagent complexes were then added to plates containing cells. To facilitate the screen, 10 μL of DNA-transfection reagent complexes were added in duplicates to the top 4 and bottom 4 rows, resulting in two identical 48-well arrays per plate. Plates with transfected cells were incubated for 18–20 h at 37 °C/5% CO2. A screen of each tracer across the entire library using two different concentrations requires duplicate plates of transfected cells. Depending on the number of tracers being screened, transfections can be scaled up using the same ratios. The next day, for each tracer, four 20× screening solutions in tracer dilution buffer (Promega) were prepared: two duplicates at final concentration of 20 μM and two duplicates at a final concentration of 2 μM. A competing unmodified compound was added to one of each duplicate at a final concentration of 400 μM. The four resulting solutions were diluted 4-fold in Opti-MEM without serum or phenol red to generate 5× solutions (5 µM and 0.5 µM tracer +/− 100 μM competing compound). To screen the library, a BioTek MultiFlo FX liquid dispenser was used to dispense 22.5 µL of tracer solution to the top 4 rows and 22.5 µL tracer + competing compound solution to the 4 bottom rows. Plates were briefly mixed on an orbital shaker and incubated for 1.5 h at room temperature. […]

[2] = biological target: T2, PTGER1 (Homo sapiens, UniProt P34995); assay: NanoBRET screen HiBiT-PTGER1 in HEK293
T2 construct: purchased Promega (in-house HiBiT-GPCR construct library, NanoBRET)
T2 sequence (P34995 1-402): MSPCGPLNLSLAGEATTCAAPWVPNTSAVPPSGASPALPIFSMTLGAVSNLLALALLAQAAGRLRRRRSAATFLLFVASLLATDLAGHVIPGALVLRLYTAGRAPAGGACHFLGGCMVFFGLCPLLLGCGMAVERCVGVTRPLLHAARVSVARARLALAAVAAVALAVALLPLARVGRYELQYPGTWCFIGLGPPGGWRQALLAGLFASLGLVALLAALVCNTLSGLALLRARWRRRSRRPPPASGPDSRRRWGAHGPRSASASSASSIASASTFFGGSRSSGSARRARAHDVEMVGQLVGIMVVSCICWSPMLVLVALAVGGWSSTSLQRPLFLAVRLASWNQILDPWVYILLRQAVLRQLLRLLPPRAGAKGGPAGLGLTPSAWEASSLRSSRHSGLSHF
Experimental: as §1, §2

[3] = biological target: T3, FZD2 (Homo sapiens, UniProt Q14332); assay: NanoBRET screen HiBiT-FZD2 in HEK293
T3 construct: purchased Promega (in-house HiBiT-GPCR construct library, NanoBRET)
T3 sequence (Q14332 24-565): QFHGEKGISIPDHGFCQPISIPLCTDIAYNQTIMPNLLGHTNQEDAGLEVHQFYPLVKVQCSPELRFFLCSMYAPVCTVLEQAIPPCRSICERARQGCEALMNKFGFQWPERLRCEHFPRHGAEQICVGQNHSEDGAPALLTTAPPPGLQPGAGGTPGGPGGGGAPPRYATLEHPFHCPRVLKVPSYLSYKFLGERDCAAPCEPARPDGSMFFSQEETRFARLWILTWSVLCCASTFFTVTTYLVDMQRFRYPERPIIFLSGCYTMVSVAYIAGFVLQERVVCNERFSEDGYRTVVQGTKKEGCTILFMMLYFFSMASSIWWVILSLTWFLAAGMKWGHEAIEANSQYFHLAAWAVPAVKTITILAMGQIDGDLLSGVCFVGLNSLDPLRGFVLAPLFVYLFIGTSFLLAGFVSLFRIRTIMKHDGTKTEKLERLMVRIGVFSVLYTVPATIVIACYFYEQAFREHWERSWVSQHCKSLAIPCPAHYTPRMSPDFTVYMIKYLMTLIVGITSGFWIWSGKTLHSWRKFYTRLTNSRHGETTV
Experimental: as §1, §2

[4] = biological target: T4, GRPR (Homo sapiens, UniProt P30550); assay: NanoBRET screen HiBiT-GRPR in HEK293
T4 construct: purchased Promega (in-house HiBiT-GPCR construct library, NanoBRET)
T4 sequence (P30550 whole entry): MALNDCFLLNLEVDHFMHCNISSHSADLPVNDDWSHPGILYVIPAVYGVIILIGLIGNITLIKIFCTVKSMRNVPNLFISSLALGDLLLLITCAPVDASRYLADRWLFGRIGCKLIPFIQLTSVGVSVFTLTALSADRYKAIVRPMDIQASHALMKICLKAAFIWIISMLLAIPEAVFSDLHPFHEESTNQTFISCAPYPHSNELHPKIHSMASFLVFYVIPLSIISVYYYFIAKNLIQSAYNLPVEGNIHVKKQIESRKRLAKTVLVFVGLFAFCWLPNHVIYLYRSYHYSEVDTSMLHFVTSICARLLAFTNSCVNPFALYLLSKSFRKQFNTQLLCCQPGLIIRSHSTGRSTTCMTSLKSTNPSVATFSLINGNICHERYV
Experimental: as §1, §2

[5] = biological target: T5, HRH3 (Homo sapiens, UniProt Q9Y5N1); assay: NanoBRET screen HiBiT-HRH3 in HEK293
T5 construct: purchased Promega (in-house HiBiT-GPCR construct library, NanoBRET)
T5 sequence (Q9Y5N1 whole entry): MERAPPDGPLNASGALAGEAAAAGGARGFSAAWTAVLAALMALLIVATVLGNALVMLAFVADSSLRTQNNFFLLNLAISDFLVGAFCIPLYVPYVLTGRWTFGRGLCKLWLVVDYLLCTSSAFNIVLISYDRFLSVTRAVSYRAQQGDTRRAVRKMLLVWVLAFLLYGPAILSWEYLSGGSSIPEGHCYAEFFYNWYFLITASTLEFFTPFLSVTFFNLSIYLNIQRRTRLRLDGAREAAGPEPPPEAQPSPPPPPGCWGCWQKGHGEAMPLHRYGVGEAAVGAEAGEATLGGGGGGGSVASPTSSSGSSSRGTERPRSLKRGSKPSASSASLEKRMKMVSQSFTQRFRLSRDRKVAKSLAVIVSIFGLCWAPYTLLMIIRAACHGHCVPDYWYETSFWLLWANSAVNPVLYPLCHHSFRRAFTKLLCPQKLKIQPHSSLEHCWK
Experimental: as §1, §2

[6] = biological target: T6, CCR8 (Homo sapiens, UniProt P51685); assay: NanoBRET screen HiBiT-CCR8 in HEK293
T6 construct: purchased Promega (in-house HiBiT-GPCR construct library, NanoBRET)
T6 sequence (P51685 whole entry): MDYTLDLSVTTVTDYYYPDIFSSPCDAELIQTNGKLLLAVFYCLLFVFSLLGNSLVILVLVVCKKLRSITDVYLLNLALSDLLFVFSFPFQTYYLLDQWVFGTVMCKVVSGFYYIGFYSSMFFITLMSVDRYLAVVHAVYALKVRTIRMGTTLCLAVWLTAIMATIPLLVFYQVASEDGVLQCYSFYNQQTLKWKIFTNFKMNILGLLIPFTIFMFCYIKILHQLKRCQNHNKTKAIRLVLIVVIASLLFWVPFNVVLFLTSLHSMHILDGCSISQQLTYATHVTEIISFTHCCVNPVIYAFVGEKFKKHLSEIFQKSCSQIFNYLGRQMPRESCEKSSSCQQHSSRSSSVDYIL
Experimental: as §1, §2

Structure (SMILES)	NanoBRET Fold Response ([1]; NPY1R, tracer 0.1μM)	NanoBRET Fold Response ([1]; NPY1R, tracer 1μM)	NanoBRET Fold Response ([2]; PTGER1, tracer 0.1μM)	NanoBRET Fold Response ([2]; PTGER1, tracer 1μM)	NanoBRET Fold Response ([3]; FZD2, tracer 0.1μM)	NanoBRET Fold Response ([3]; FZD2, tracer 1μM)	NanoBRET Fold Response ([4]; GRPR, tracer 0.1μM)	NanoBRET Fold Response ([4]; GRPR, tracer 1μM)	NanoBRET Fold Response ([5]; HRH3, tracer 0.1μM)	NanoBRET Fold Response ([5]; HRH3, tracer 1μM)	NanoBRET Fold Response ([6]; CCR8, tracer 0.1μM)	NanoBRET Fold Response ([6]; CCR8, tracer 1μM)	also measured
COc1ccccc1N1CCN(CCCCN2C(=O)c3ccc(CNC(=O)CCOCCNC(=O)c4ccc(CNC(=O)CCc5ccc6n5[B-](F)(F)[N+]5=C(c7ccc[nH]7)C=CC5=C6)cc4)cc3C2=O)CC1 [NAN-190-3-NB590]	0.88	0.94	0.89	1.11	0.88	1.44	0.87	0.94	1.38	0.93	0.67	1.01	
Cc1cc2c(s1)Nc1ccccc1N=C2N1CCN(CCCNC(=O)CCOCCOCCOCCOCCNC(=O)CCc2ccc3n2[B-](F)(F)[N+]2=C(c4ccc[nH]4)C=CC2=C3)CC1 [Olanzapine-a-2-NB590]	1.02	1.02	1.03	1.04	0.98	0.90	0.95	0.93	1.06	1.16	0.96	0.95	
CCCn1c(=O)c2[nH]c(-c3ccc(OCC(=O)NCCNC(=O)CCOCCNC(=O)c4ccc(CNC(=O)CCc5ccc6n5[B-](F)(F)[N+]5=C(c7ccc[nH]7)C=CC5=C6)cc4)cc3)nc2n(CCC)c1=O [XAC-3-NB590]	1.01	0.95	1.06	1.16	1.09	1.04	1.24	1.01	0.81	1.33	0.90	0.93	
COc1ccc2c(n1)c(CCNC(C)=O)cn2CCNC(=O)CCc1ccc2n1[B-](F)(F)[N+]1=C(c3ccc[nH]3)C=CC1=C2 [Azamelatonin-1-NB590]													NanoBRET Fold Response ([1]; 0.1μM tracer): 0.93; NanoBRET Fold Response ([1]; 1μM tracer): 0.68; NanoBRET Fold Response ([2]; 0.1μM tracer): 1.20; NanoBRET Fold Response ([2]; 1μM tracer): 0.95; NanoBRET Fold Response ([3]; 0.1μM tracer): 0.95; NanoBRET Fold Response ([3]; 1μM tracer): 0.95; NanoBRET Fold Response ([4]; 0.1μM tracer): 1.00; NanoBRET Fold Response ([4]; 1μM tracer): 1.08; NanoBRET Fold Response ([5]; 0.1μM tracer): 1.07; NanoBRET Fold Response ([5]; 1μM tracer): 1.07; NanoBRET Fold Response ([6]; 0.1μM tracer): 1.13; NanoBRET Fold Response ([6]; 1μM tracer): 1.09
